The term Cmax denotes the highest concentration seen after dosing. For orientation: Tmax means the time at which the peak concentration occurs.

Each structure is given as a SMILES string. Non-standard residues stand in square brackets, D forms with d. Residues, ends and D or L forms follow the SMILES beside them. dPip = O=C(O)[C@H]1CCCCN1

The test system of series [1] is coronary artery thrombosis. As to the kind of experiment: Canine Model of Coronary Artery Thrombosis. Type of series: in vivo, dogs. As for the experimental part: Surgical preparation and instrumentation of the dogs are as described in Jackson, et al., Circulation, 82, 930-940 (1990). Mixed-breed hounds (aged 6-7 months, either sex, Hazelton-LRE, Kalamazoo, Mich., U.S.A.) are anesthetized with sodium pentobarbital (30 mg/kg intravenously, i.v.), intubated, and ventilated with room air. Tidal volume and respiratory rates are adjusted to maintain blood PO2, PCO2, and pH within normal limits. Subdermal needle electrodes are inserted for the recording of a lead II ECG.
The left jugular vein and common carotid artery are isolated through a left mediolateral neck incision. Arterial blood pressure (ABP) is measured continuously with a precalibrated Millar transducer (model (MPC-500, Millar Instruments, Houston, Tex., U.S.A.) inserted into the carotid artery. The jugular vein is cannulated for blood sampling during the experiment. In addition, the femoral veins of both hindlegs are cannulated for administration of test compound.
A left thoracotomy is performed at the fifth intercostal space, and the heart is suspended in a pericardial cradle. A 1- to 2-cm segment of the left circumflex coronary artery (LCX) is isolated proximal to the first major diagonal ventricular branch. A 26-gauge needle-tipped wire anodal electrode (Teflon-coated, 30-gauge silverplated copper wire) 3-4 mm long is inserted into the LCX and placed in contact with the intimal surface of the artery (confirmed at the end of the experiment). The stimulating circuit is completed by placing the cathode in a subcutaneous (s.c.) site. An adjustable plastic occluder is placed around the LCX, over the region of the electrode. […] All hemodynamic and ECG measurements are recorded and analyzed with a data acquisition system (model M3000, Modular Instruments, Malvern, Pa. U.S.A.).
Electrolytic injury of the intima of the LCX is produced by applying 100-μA direct current (DC) to the anode. […] Thrombus formation proceeds spontaneously until the LCX is totally occluded (determined as zero CBF and an increase in the S-T segment). […]

Series [2] can be described thus: Pharmacokinetic Model, oral gavage. In kind it is in vivo. Conditions: dogs, single 2 mg/kg oral gavage. As for the experimental part: Male dogs (Beagles; 18 months-2 years; 12-13 kg, Marshall Farms, North Rose, N.Y. 14516) are fasted overnight and fed Purina certified Prescription Diet (Purina Mills, St. Louis, Mo.) 240 minutes after dosing. Water is available ad libitum. The room temperature is maintained between 66°-74° F.; 45-50 percent relative humidity; and lighted from 0600-1800 hours.
Test compound is formulated immediately prior to dosing by dissolving in sterile 0.9 percent saline to a 5 mg/ml preparation. Dogs are given a single 2 mg/kg dose of test compound by oral gavage. Blood samples (4.5 ml) are taken from the cephalic vein at 0.25, 0.5, 0.75, 1,2,3,4 and 6 hours after dosing. Samples are collected in citrated Vacutainer tubes and kept on ice prior to reduction to plasma by centrifugation. Plasma samples are derivatized with dinitrophenylhydrazine and analyzed by HPLC (Zorbax SB-C8 column) eluting with methanol/500 mM sodium acetate adjusted to pH7 with phosphoric acid (60:40, v/v). Plasma concentration of test compound is recorded and used to calculate the pharmacokinetic parameters: elimination rate constant, Ke; total clearance, Clt; volume of distribution, VD; time of maximum plasma test compound concentration, Tmax; maximum concentration of test compound of Tmax, Cmax; plasma half-life, t0.5; and area under the curve, A.U.C.; fraction of test compound absorbed, F.

Series [3] is described as follows: Index of Bioavailability (plasma TT AUC, oral vs i.v.). In kind it is in vivo. Conditions: rats, oral vs i.v. bolus. The source says:
Assays are done in duplicate and averaged.
Each sample population represents alternating sequential time points.

The target of series [4] is T1, tissue plasminogen activator (t-PA) (Homo sapiens, UniProt P00750).
T1 construct: purchased American Diagnostica, Greenwich, Conn
Kind of series: Serine protease inhibition (Kass), t-PA. In kind it is biochemical.

Another series addresses human thrombin (Homo sapiens, UniProt P00734). As to the kind of experiment: Thrombin amidase inhibition (Kass), chromogenic substrate. Type of series: biochemical. Put shortly:
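Kass, in liter per mole, was averaged over several compound concentrations, using free thrombin from a rate standard curve and free inhibitor as added minus bound. Hydrolysis of chromogenic substrate (0.25 mg/ml solution) was monitored at 405 nm with human thrombin (8 NIH units/ml solution) in Tris-NaCl buffer pH 7.4, compound in 50% aqueous methanol.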

A further series deals with template bleeding time. Kind of series: Template Bleeding Time assay. Type of series: in vivo, dogs. The following applies: 0.25, 0.50 and 1.0 mg/kg.hr, over a 240 minute time. The method, then: Whole blood cell counts, hemoglobin, and hematocrit values are determined on a 40-μl sample of citrated (3.8 percent) blood (1 part citrate:9 parts blood) with a hematology analyzer (Cell-Dyn 900, Sequoia-Turner. Mount View, Calif., U.S.A.). Gingival template bleeding times are determined with a Simplate II bleeding time device (Organon Teknika Durham, N.C., U.S.A.). The device is used to make 2 horizontal incisions in the gingiva of either the upper or lower left jaw of the dog. Each incision is 3 mm wide×2 mm deep. The incisions are made, and a stopwatch is used to determine how long bleeding occurs. A cotton swab is used to soak up the blood as it oozes from the incision. Template bleeding time is the time from incision to stoppage of bleeding. Bleeding times are taken just before administration of test compound (0 min), 60 min into infusion, at conclusion of administration of the test compound (120 min), and at the end of the experiment.
All data are analyzed by one-way analysis of variance (ANOVA) followed by Student-Neuman-Kuels post hoc t test to determine the level of significance. Repeated-measures ANOVA are used to determine significant differences between time points during the experiments. Values are determined to be statistically different at least at the level of p<0.05. All values are mean±SEM. […]

T1 sequence (P00750 36-562): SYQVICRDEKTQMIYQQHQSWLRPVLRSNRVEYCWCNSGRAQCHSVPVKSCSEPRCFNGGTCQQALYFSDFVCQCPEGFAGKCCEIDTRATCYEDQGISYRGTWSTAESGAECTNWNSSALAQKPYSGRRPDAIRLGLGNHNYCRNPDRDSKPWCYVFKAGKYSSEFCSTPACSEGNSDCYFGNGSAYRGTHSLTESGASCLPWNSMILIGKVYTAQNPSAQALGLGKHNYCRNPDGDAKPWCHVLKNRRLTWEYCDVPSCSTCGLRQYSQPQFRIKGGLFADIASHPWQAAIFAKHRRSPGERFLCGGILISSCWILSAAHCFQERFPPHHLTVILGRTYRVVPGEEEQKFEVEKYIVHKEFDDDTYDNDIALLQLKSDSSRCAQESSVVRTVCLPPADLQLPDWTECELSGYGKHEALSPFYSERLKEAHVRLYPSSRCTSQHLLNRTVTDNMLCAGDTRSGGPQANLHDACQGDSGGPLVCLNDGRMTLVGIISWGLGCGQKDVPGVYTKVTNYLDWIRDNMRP

Consider `Cl.Cl.N=C(N)NCCC[C@@H](C=O)NC(=O)[C@@H]1CCCN1C(=O)[C@H]1CCCCN1` [Example 1, D-Homoprolinyl-L-Prolinyl-L-Arginine Aldehyde Dihydrochloride] (H-[dPip]-Pro-Arg-aldehyde), for which, in series [1] (dose 0.25 mg/kg.hr), the “Time to Occlusion” value was found to be 60 min. Moreover, the “Time to Occlusion” value in series [1] (dose 0.50 mg/kg.hr) is 150 min. Further, in series [1] (dose 1.00 mg/kg.hr), the “Time to Occlusion” value is on record as over 225 min. Also, in series [2], the A.U.C. o-infinity was 4651 ng·h/mL, the Clt/F was determined as 7.28 mL/min/kg, the Cmax worked out at 1676 ng/mL and the Ke came to 0.0104 min.-1. In addition, in series [2], the Tmax was in the range of 1 to 2 h, the VD/F is reported as 0.729 L/kg and the t0.5 worked out at 67 min. Besides, in series [3], the “Percent Relative Activity (Index of Bioavailability)” value is given as 38%. Besides, in series [4], the “Kass t-PA” value was 0.02 L/mol × 10^6. The “Kass Human Thrombin” value at human thrombin is recorded as 46 L/mol × 10^6. Also, the “effect on template bleeding time” value with template bleeding time was “no significant effect on template bleeding time”.

The record behind these values is patent US5436229A, “Bisulfite adducts of arginine aldehydes” (Eli Lilly and Company, priority 1994, dated 1995).
